Series [1] relates to octopamine receptor sites. Kind of series: 3H-OA binding to ventral nerve cord / synaptosomal membrane protein. Also noted: species or system American cockroach (Periplaneta americana). As to conditions: for dpm 3H-OA/500 μg protein: Table 2; for classification with respect to octopamine receptor sites (OAR): based on the binding data of Tables 1-3. The protocol:
Different concentrations of unlabeled octopamine (OA) (20, 30, 40, 50, 60, 100 ng) were tested on the binding activity as a positive control. Test chemicals were dissolved in acetone before the assay. Different concentrations of the test chemicals were added directly to the protein preparation from ventral nerve cord. The same amount of solvent (1 μl 0.1%) were added to the control samples. All assays with test chemicals were run in the presence and absence of 50 ng OA. All chemicals were added to the protein extract 20 min prior the addition of radio labeled ^3H-OA(100,000 cpm/sample). After 30 min at 24° C. of the addition of ^3H-OA, the reaction was stopped by the addition of ice-cold Tris buffer, and the samples were filtered through GF/C membrane using water vacuum. After two washes each with 5 ml Tris buffer, the membrane was removed, air dried and the radioactivity was counted in 4 ml liquid scintillation solution. The specific binding was calculated as the difference between the values in the presence and absence of unlabeled OA. All data are calculated as the mean±standard deviation of 5 assays.
Additional tests were conducted on radio labeled octopamine using other purified naturally occurring materials as given in Tables 2 and 3.

The test system of series [2] is American cockroach. Kind of series: Lethal effect of injected test chemicals. It counts as in vivo. Here is the method:
Further studies were conducted to determine the LD 50 of purified naturally occurring plant essential oils and/or their constituents. […] Ten roaches per dose were used. Another group of ten roaches received the same volume of vehicle only (0.5 μl) and used as a control group. Mortality was recorded 24, 48, and 72 hours after exposure.

For series [3], the system named is heart of American cockroach (octopamine receptors). Description: Heartbeat after application to thoracic segment. It counts as in vivo. As to conditions: mean ±SD of three roaches. Here is the method: To further establish the effect of the purified naturally occurring plant essential oils and/or their constituents on the American cockroach, a 300 μg amount of the chemical was applied to the thoracic segment of an intact and alive American cockroach. The heart beats/30 seconds was measured. The heart of the cockroach is known to have a high concentration of octopamine receptors and the heart beat is considered an important measurement to indicate the effect of the applied chemicals to the octopamine receptors.

The subject of series [4] is American cockroach. Description: Cross walk jar test on pre-treated surface. The class given is in vivo. Here is the method:
In the test, a known amount of the test material was dissolved in a known volume of acetone and applied to small jars and all inner bottom surfaces were covered. The bottom surface of each jar is approximately 250 cm^2. One hour after the acetone had completely evaporated, five American cockroaches were introduced to each jar. Control jars were treated exactly as above but with the known amount of acetone only.
The results of the “cross walk” jar tests are in Table 8 in which the “4-blend” was dispersed as an aerosol and a dust in the jar.
In this test, the acetone solution of the test material was placed in the jar and the roach inserted into the jar after the acetone had evaporated.
Mortality was measured 24 hours after exposure.
The “4-blend” and the individual constituents of the “4-blend” were tested using 10 cockroaches for each “cross walk” treatment. In addition, pyrethrins were tested separately and mixed with the various components.
A concentration of 100 mg/jar was used for each individual alone. In the co-treatment experiment without pyrethrins, 20 mg/jar for each chemical was used. In the cotreatment experiment with pyrethrins, 20 mg/jar for the naturally occurring plant material was used. Pyrethrins was used at 2 mg/jar. […] It was noted above that the mortality is dependent upon concentration. […] Some synergism is found between pyrethrins and either α-terpineol or benzyl alcohol.

Setting [5] is: 500 ng/ml, solvent control 1101 ± 120.
The mark [6] stands for this setting: 1000 ng/ml, solvent control 930 ± 89.
Setting [7] is: 500 μg/roach injected into thoracic and abdominal segments, 24 hr., dead/10.
[8] abbreviates: 500 μg/roach injected, 48 hr., dead/10.
The mark [9] stands for this setting: 500 μg/roach injected, 72 hr., dead/10, control 1/10.
Where [10] appears, read: 300 ng test chemical, Table 1, solvent control 1280 ± 259.
The mark [11] stands for this setting: 500 ng test chemical, Table 1, solvent control 1280 ± 259.
Where [12] appears, read: 700 ng test chemical, Table 1, solvent control 1280 ± 259.
[13] abbreviates: 1000 ng test chemical, Table 1, solvent control 1280 ± 259.
The mark [14] stands for this setting: 1500 ng test chemical, Table 1, solvent control 1280 ± 259.

Regarding `CC12CCC(CC1)C(C)(C)O2` [Eucaluptol, Eucalyptol], in series [1] (500 ng/ml), the “agonist/antagonist note to 3H-OA binding” value is “antagonist”. In addition, the “dpm 3H-OA/500 μg protein” value in series [1] (setting [5]) came out at 865 ± 45 dpm 3H-OA/500 μg protein; in series [1] (setting [6]) it was 653 ± 36 dpm 3H-OA/500 μg protein. The “cpm 3H-OA/500 μg protein” value in series [1] (500 ng/ml, Table 3, solvent control 1385 ± 101) came out at 1637 ± 095 cpm 3H-OA/500 μg protein. For the same molecule, in series [1], the “classification with respect to octopamine receptor sites (OAR)” value (“classification” for short) is listed as “Non-OAR Specific Toxicants”. For the same molecule, the Mortality in the series on American cockroach [2] (setting [7]), with American cockroach [2] (setting [8]) and in the series with American cockroach [2] (setting [9]) was 0/10 each time.
For the molecule `C=C(C)[C@H]1CC=C(C)CC1` [d-limonene], in series [1], the “activity/binding at octopamine receptor sites, in words” value is “no activity against octopamine receptor sites”. Moreover, the “dpm 3H-OA/500 μg protein” value is reported as 1194 ± 101 dpm 3H-OA/500 μg protein in series [1] (setting [5]) and 866 ± 71 dpm 3H-OA/500 μg protein in series [1] (setting [6]). In addition, the Mortality in the series with American cockroach [2] (setting [7]), in the series with American cockroach [2] (setting [8]) and with American cockroach [2] (setting [9]) was 0/10 each time.
A word on the mortality: it is the percentage killed. In the case of `CC1=CCC(C(C)(C)O)CC1` (stereo not drawn) [α-terpineol], the “cpm 3H-OA/500 μg protein” value is recorded as 1213 ± 110 cpm 3H-OA/500 μg protein in series [1] (setting [10]); 1031 ± 24 cpm 3H-OA/500 μg protein in series [1] (setting [11]); 910 ± 88 cpm 3H-OA/500 μg protein in series [1] (setting [12]); 700 ± 88 cpm 3H-OA/500 μg protein in series [1] (setting [13]); 565 ± 47 cpm 3H-OA/500 μg protein in series [1] (setting [14]). Further, the “classification” value in series [1] was “moderate OAR antagonists”. Besides, the “Heart beat/30 sec 30 min after treatment” value in series [3] (300 μg applied to thoracic segment) worked out at 32 ± 2 beat/30 sec. Moreover, in series [3] (baseline of the same roaches), the “Heart beat/30 sec before treatment” value amounted to 58 ± 4 beat/30 sec. Also, the mortality at 100 mg amounted to 20% with American cockroach [4] (Periplaneta americana, 24 h); 30% with American cockroach [4] (Periplaneta americana, 48 h); 60% in the series on American cockroach [4] (Periplaneta americana, 72 h).
Turning to `CC(C)=CCCC(C)CC=O` (stereo not drawn) [citronellal], the Mortality in the series on American cockroach [2] (setting [7]), with American cockroach [2] (setting [8]) and with American cockroach [2] (setting [9]) was 0/10 in each case.
In the case of `CC(C)=C1CC[C@@H](C)CC1=O` [pulegone], the “cpm 3H-OA/500 μg protein” value in series [1] (setting [10]) is given as 936 ± 33 cpm 3H-OA/500 μg protein; in series [1] (setting [11]), 778 ± 22 cpm 3H-OA/500 μg protein; in series [1] (setting [12]) it was 662 ± 51 cpm 3H-OA/500 μg protein; in series [1] (setting [13]), 435 ± 22 cpm 3H-OA/500 μg protein; in series [1] (setting [14]) it was 217 ± 18 cpm 3H-OA/500 μg protein. Besides, in series [1], the “classification” value was “high OAR antagonists”. Also, the Mortality is recorded as 20% in the series with American cockroach [2] (50 μg injected through the end of the abdominal segment, 48 hr. after treatment); 6/10 with American cockroach [2] (setting [7]); 6/10 with American cockroach [2] (setting [8]); 7/10 in the series on American cockroach [2] (setting [9]). Also, the “Mortality 24 hr after treatment” value in the series with American cockroach [2] (300 μg, dead/10) is on record as 3/10; in the series on American cockroach [2] (400 μg, dead/10), 5/10; in the series with American cockroach [2] (500 μg, dead/10), 5/10; in the series with American cockroach [2] (600 μg, dead/10), 8/10; with American cockroach [2] (700 μg, dead/10), 10/10. In addition, the mortality at 10 mg with American cockroach [4] (Periplaneta americana, 24 h) is 100%. In addition, the “pesticidal activity against cockroaches, in words” value with American cockroach [4] (in vivo) is given as “high pesticidal activity”.
